A word on the AUC: it is concentration integrated over time.

Holding throughout (format): physicochemical
Series [1] is described as follows: In vitro dissolution test of Drug 2 compositions in PBS with sodium taurocholic acid/POPC (microcentrifuge, HPLC). To be noted: for Drug 2 Concentration: PBS with sodium taurocholic acid/POPC, 37° C. Here is the method: Example 5 was prepared by combining the drug/matrix dispersion of Drug 2 and polyethylene glycol with the concentration-enhancing polymer HPMCAS. Example 5 was evaluated in an in vitro dissolution test using a microcentrifuge method. In this test, 18 mg of the dispersion was added to each of two microcentrifuge tubes. The tubes were placed in a 37° C. temperature-controlled chamber, and 1.8 mL PBS containing 7.3 mM sodium taurocholic acid and 1.4 mM 1-palmitoyl-2-oleyl-sn-glycero-3-phosphocholine, with 7.2 mg HPMCAS-MF, was added. The tests were sampled as described in Example 1, and analyzed using HPLC. Samples were collected at 4, 10, 20, 40, 90, and 1200 minutes.

Series [2] can be described thus: In vitro dissolution test of Drug 3 compositions in PBS (microcentrifuge, HPLC). The note with it: for Drug 3 Concentration: PBS, 37° C. Here is the method:
Example 6 was prepared by combining the dispersion with the concentration-enhancing polymer HPMCAS. 7.2 mg of the dispersion of Example 6 was added to microcentrifuge tubes. Tests were performed in duplicate. The tubes were placed in a 37° C. temperature-controlled chamber, and 1.8 mL PBS with 5.4 mg HPMCAS-MF was added. The tests were sampled as described in Example 1, and analyzed using HPLC.

Series [3] in a line: In vitro dissolution test of Drug 4 compositions in PBS (microcentrifuge, HPLC). On the set-up: AUC: concentration or dose not given beside the values. The note with it: for Drug 4 Concentration: PBS, 37° C. Here is the method: Tests were performed in duplicate. The tubes were placed in a 37° C. temperature-controlled chamber, and 1.8 mL PBS with 7.2 mg PVA was added. The tests were sampled as described in Example 1, and analyzed using HPLC. HPLC analysis was performed using a Zorbax SB C18 column, with a mobile phase of 35 vol. % water and 65 vol. % methanol. UV absorbance of Drug 4 was measured at 297 nm.

Series [4] can be described thus: In vitro dissolution test of Drug 5 compositions in MFDS pH 6.5 (microcentrifuge, HPLC). To be noted: for Drug 5 Concentration: MFDS pH 6.5, 37° C. As for the experimental part: Example 10 was prepared by combining the above amorphous dispersion with the concentration-enhancing polymer hydroxypropyl methylcellulose (HPMC E3 Prem LV, Dow Chemical Co.). 1.4 mg of the amorphous dispersion was added to microcentrifuge tubes. The tubes were placed in a 37° C. temperature-controlled chamber, and 1.8 mL PBS containing 0.5 wt % sodium taurocholic acid/1-palmitoyl-2-oleyl-sn-glycero-3-phosphocholine (MFDS, pH 6.5) and 0.4 mg HPMC was added. The tests were sampled as described in Example 1, and analyzed using HPLC.
For Control C12, in vitro dissolution tests were performed using the precedures described above except that 1.4 mg of the amorphous dispersion was tested without concentration-enhancing polymer (HPMC) in the test solution.

In the case of `CCC(CC)Oc1c(C)cnc(Oc2c(C)cc(C)cc2C)c1C` [Control C7, 3,5-dimethyl-4-(3′-pentoxy)-2-(2′, 4′, 6′-trimethylphenoxy) pyridine], the “Drug 2 Concentration” value in series [1] (0 min) stood at 0 µg/mL; in series [1] (4 min), 16 µg/mL; in series [1] (10 min) it was 33 µg/mL; in series [1] (20 min), 32 µg/mL; in series [1] (40 min), 30 µg/mL; in series [1] (90 min), 39 µg/mL. Besides, in series [1] (1200 min), the “Drug 2 Concentration” value was 37 µg/mL. In addition, the AUC in series [1] (Drug 2, 0 min) is 0 µg·min/mL; in series [1] (Drug 2, 4 min), 0 µg·min/mL; in series [1] (Drug 2, 10 min) it was 200 µg·min/mL; in series [1] (Drug 2, 20 min), 500 µg·min/mL; in series [1] (Drug 2, 40 min) it was 1,100 min*μg/mL; in series [1] (Drug 2, 90 min), 2,800 min*μg/mL. Besides, the exposure (AUC) in series [1] (Drug 2, 1200 min) is reported as 45,000 min*μg/mL. Moreover, in series [1] (Drug 2, area under the concentration versus time curve after 90 minutes), the AUC90 stood at 2800 µg·min/mL. This compound had a C1200 in series [1] (Drug 2 concentration at 1200 minutes) of 37 µg/mL. In series [1] (maximum concentration of Drug 2 in solution during the first 90 minutes), the “Cmax,90” value is 39000 ng/mL.
Take `CCOC(=O)N1c2ccc(C(F)(F)F)cc2[C@@H](N(Cc2cc(C(F)(F)F)cc(C(F)(F)F)c2)C(=O)OC)C[C@H]1CC` [Control C9, [2R,4S] 4-[(3,5-bis-trifluoromethyl-benzyl)-methoxycarbonyl-amino]-2-ethyl-6-trifluoromethyl-3,4-dihydro-2H-quinoline-1-carboxylic acid ethyl ester]: the “Drug 3 Concentration” value in series [2] (0 min), in series [2] (4 min), in series [2] (10 min), in series [2] (20 min), in series [2] (40 min) and in series [2] (90 min) was <1 µg/mL in each case. Moreover, the “Drug 3 Concentration” value in series [2] (1200 min) is <1 µg/mL. In addition, the AUC in series [2] (Drug 3, 0 min) was <1 µg·min/mL; in series [2] (Drug 3, 4 min), <1 µg·min/mL; in series [2] (Drug 3, 10 min), <1 µg·min/mL; in series [2] (Drug 3, 20 min) it was <1 µg·min/mL; in series [2] (Drug 3, 40 min), <1 µg·min/mL; in series [2] (Drug 3, 90 min), <1 µg·min/mL. For the same compound, in series [2] (Drug 3, 1200 min), the AUC was <1 µg·min/mL. For the same compound, the AUC90 in series [2] (Drug 3, after 90 minutes) is <1 µg·min/mL. In series [2] (Drug 3 concentration at 1200 minutes), the C1200 is <1 µg/mL. Moreover, the “Cmax,90” value in series [2] (maximum concentration of Drug 3 during the first 90 minutes) is <1000 ng/mL.
As to `O=C(N[C@@H](Cc1ccccc1)[C@@H](O)C(=O)N1C[C@@H](O)[C@@H](O)C1)c1cc2cc(Cl)ccc2[nH]1` [Control C11, 5-chloro-1H-indole-2-carboxylic acid [(1S)-benzyl-3-((3R, 4S)-dihydroxypyrrolidin-1-yl-)-(2R)-hydroxy-3-oxypropyl] amide], the “Drug 4 Concentration” value came to 0 µg/mL in series [3] (0 min); 360 µg/mL in series [3] (4 min); 382 µg/mL in series [3] (10 min); 372 µg/mL in series [3] (20 min); 345 µg/mL in series [3] (40 min); 262 µg/mL in series [3] (90 min). In addition, the “Drug 4 Concentration” value in series [3] (1200 min) was 154 µg/mL. For the same compound, the AUC is 0 µg·min/mL in series [3] (Drug 4, 0 min); 700 µg·min/mL in series [3] (Drug 4, 4 min); 2,900 min*μg/mL in series [3] (Drug 4, 10 min); 6,700 min*μg/mL in series [3] (Drug 4, 20 min); 13,900 min*μg/mL in series [3] (Drug 4, 40 min); 29,100 min*μg/mL in series [3] (Drug 4, 90 min). In addition, the AUC in series [3] (Drug 4, 1200 min) is recorded as 259,800 min*μg/mL. The AUC90 in series [3] (Drug 4, after 90 minutes) is given as 29,100 min*μg/mL. In series [3] (Drug 4 concentration at 1200 minutes), this compound came in with a C1200 of 154 µg/mL. The “Cmax,90” value in series [3] (maximum concentration of Drug 4 during the first 90 minutes) was 382000 ng/mL.
`CS(=O)(=O)O.O=C1Cc2cc(CCN3CCN(c4nsc5ccccc45)CC3)c(Cl)cc2N1` [Control C13]: the “Drug 5 Concentration” value in series [4] (0 min) was 0 µg/mL; in series [4] (4 min), 16 µg/mL; in series [4] (10 min), 8 µg/mL; in series [4] (20 min) it was 5 µg/mL; in series [4] (40 min), 4 µg/mL; in series [4] (90 min) it was 4 µg/mL. The “Drug 5 Concentration” value in series [4] (1200 min) amounted to 4 µg/mL. Moreover, the AUC in series [4] (Drug 5, 0 min) came out at 0 µg·min/mL; in series [4] (Drug 5, 4 min), 0 µg·min/mL; in series [4] (Drug 5, 10 min), 100 µg·min/mL; in series [4] (Drug 5, 20 min) it was 200 µg·min/mL; in series [4] (Drug 5, 40 min), 300 µg·min/mL; in series [4] (Drug 5, 90 min), 500 µg·min/mL. Further, in series [4] (Drug 5, 1200 min), the AUC is 4,900 min*μg/mL. Moreover, in series [4] (Drug 5, after 90 minutes), the AUC90 came to 500 µg·min/mL. In addition, the C1200 in series [4] (Drug 5 concentration at 1200 minutes) was 4 µg/mL. Further, in series [4] (maximum concentration of Drug 5 during the first 90 minutes), the “Cmax,90” value was determined as 16000 ng/mL.

For the origin of these results see patent US20030104063A1, “Pharmaceutical compositions of dispersions of amorphous drugs mixed with polymers” (priority 2001, published 2003).
